# Laboratory results: patent US20120177601A1, “TREATMENT OF HEPATITIS C VIRUS INFECTIONS” (THE USA AS REPRESENTED BY THE SECRETARY OF THE DEPARTMENT …, priority 2009, published 2012)
# Where two headings read alike, the source gives them in different places.
# Key:
# [1] = in vivo; cited from earlier work
# HIV-1 protease = HIV-1 protease (Human immunodeficiency virus type 1 group M subtype B, UniProt P04585); conditions: McPhee et al. 1996; cited from earlier work
# [2] = molecular target: T1, HCV NS3/4A recombinant protease (UniProt O92972); assay type: biochemical
# T1 construct: other: recombinant protease, 591 nm/622 nm FRET peptide, regression analysis; other: recombinant NS3/4A, Lineweaver-Burk; other: BV versus BR; effect o; fused on or other part: By knowledge of the vendor's product, the NS4A cofactor segment of the same polyprotein is fused to the N-terminus of the NS3 protease domain
# Experimental: In vitro assay of HCV NS3/4A recombinant protease. Protease activity was determined fluorometrically with the SensoLyte 620 HCV Protease Assay (AnaSpec, Fremont, Calif.) using a wide wavelength excitation/emission (591 nm/622 nm respectively) fluorescence energy transfer peptide according to the manufacturer's instructions. Control incubations with BV or metabolite only were performed to eliminate or correct for autofluorescence or quenching. A competitive inhibitor of the NS3/4A protease, AnaSpec #25346, was used as positive control.
# [3] = test system: HCV RNA in NS and FL replicons after BVR siRNA; assay type: cell-based; conditions: BV 20 μM or BR 100 μM overnight, both replicon lines, vs scrambled RNA
# Experimental: (§1) Quantitative Real-time RT-PCR. Total RNA was extracted from cells using Trizol reagent (Invitrogen, Carlsbad, Calif.), treated with Turbo RNase free DNase (Ambion, TX), and processed as described (Zhu et al., 2008). To assess replication, the primers and probe designed by Takeuchi et al. (1999) targeting sequences located in 5′UTR (nt130-290) were employed as described for each replicon line (Blight et al., 2002; Lohmann et al., 2003). Real-time RT-PCR was performed using Taq DNA polymerase with the TaqMan Universal PCR Master Mix Protocol (Perkin Elmer Applied Biosystems, Foster City, Calif.). Quantitation was performed using the comparative cycle threshold (ΔCT) method as described previously (Abdalla et al., 2004).
# Biliverdin reductase (BVR) knockdown. Biliverdin reductase (BVR) siRNA and control (scrambled) siRNA were purchased from Santa Cruz Biotechnology (sc-44650 and sc-37007). BVR knockdown was performed as described previously (Ryter et al., 2007). Efficiency of the knockdown was monitored by semiquantitative densitometry of BVR WB.
# [4] = unconjugated form; cited from earlier work
# [5] = test system: Huh7.5FL replicon (full length Con1); test: HCV replication in full-length (FL) replicon cells, real-time RT-PCR (ΔCT); assay type: cell-based; conditions: for concentration showing significant antiviral activity / required to suppress HCV replication: FL replicon, 48 hr; for Relative [HCV] [ΔCT]: overnight, Huh7.5FL, control vehicle = 1.0
# From the text: (§2) Cell lines and cell culture. The human hepatoma cell line (Huh5-15) with replicating sub-genomic HCV RNA (Lohmann et al., 1999) was a kind gift of Dr. Volker Lohmann (Institute for Virology, Johannes-Gutenberg University, Mainz, Germany), and cultivated as described (Zhu et al., 2008). Huh7.5 cells harboring full length (Huh7.5FL) Conl replicons (Blight et al., 2002) were a kind gift of Dr. Charles Rice (Rockefeller University, New York, N.Y.). These cells were passed as recommended by their laboratory of origin (Blight et al., 2002). An infectious clone of HCV, J6/JFH, was inoculated into Huh7.5 cells and the cultures passed as previously described (Lindenbach et al., 2005). Cells were incubated with BV, BR, or FeCl2 for 24-48 h in DMEM containing 5% FBS.
# as §1
# [6] = test system: Huh5-15NS replicon (sub-genomic HCV RNA); test: HCV replication in nonstructural (NS) replicon cells, real-time RT-PCR (ΔCT); assay type: cell-based; conditions: for concentration showing significant antiviral activity / required to suppress HCV replication: NS replicon, 48 hr; for Relative [HCV] [ΔCT]: overnight, Huh5-15NS, control vehicle = 1.0
# From the text: as §2, §1
# [7] = test system: NS5A and core protein in NS and FL replicons; test: Western blot / immunoprecipitation of HCV proteins in replicons; assay type: cell-based; conditions: 24 hr, BV 20 μM, BR 200 μM, FeCl2 100 mM as printed
# Experimental: Western blot analysis. Western blots (WB) were performed as previously described using enhanced chemiluminescence for signal detection (ECLTM, Amersham) (Abdalla et al., 2005). Signal intensities were quantified using Image J software (NIH).
# Immunoprecipitation of NS5A. Log-phase replicons were treated with various concentrations of BV for 48 hr, washed, lysed in cell lysis buffer (Cell Signaling Technology, Beverly, Mass.) and clarified by cold centrifugation (14,000×g for 10 min). An aliquot of supernatant containing 100 μg protein was incubated with 1 μg of HCV NS5A monoclonal antibody (Meridian Life Science, Saco, Me.) and 20 μl of rProtein G Agarose (Invitrogen, CA) overnight at 4° C. The agarose was collected by 3000×g spin, washed three times with ice-cold PBS, then dissolved in 40 μL 2× Laemmli sample buffer (Bio-Rad, CA) and assayed by WB.
# [8] = recombinant protease, 591 nm/622 nm FRET peptide, regression analysis; read-out: IC50, inhibition of HCV NS3/4A protease
# T1 sequence (O92972 1027-1657): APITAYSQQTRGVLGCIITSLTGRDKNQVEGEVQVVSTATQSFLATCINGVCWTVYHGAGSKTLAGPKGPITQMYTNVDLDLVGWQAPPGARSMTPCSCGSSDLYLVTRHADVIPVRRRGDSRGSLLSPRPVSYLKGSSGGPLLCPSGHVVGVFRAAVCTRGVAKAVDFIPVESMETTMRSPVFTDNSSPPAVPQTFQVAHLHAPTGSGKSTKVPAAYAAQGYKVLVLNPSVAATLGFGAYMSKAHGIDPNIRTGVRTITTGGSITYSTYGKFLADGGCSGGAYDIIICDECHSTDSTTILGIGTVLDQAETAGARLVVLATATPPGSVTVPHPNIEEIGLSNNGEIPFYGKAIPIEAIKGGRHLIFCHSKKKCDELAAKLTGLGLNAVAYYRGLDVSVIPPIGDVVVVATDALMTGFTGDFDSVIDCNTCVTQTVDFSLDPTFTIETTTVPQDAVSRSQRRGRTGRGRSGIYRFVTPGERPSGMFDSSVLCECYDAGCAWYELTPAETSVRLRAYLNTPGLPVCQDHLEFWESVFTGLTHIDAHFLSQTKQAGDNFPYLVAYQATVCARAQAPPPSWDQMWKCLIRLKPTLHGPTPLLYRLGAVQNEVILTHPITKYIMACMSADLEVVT
molecule,measurement,setting,value
"C=CC1=C(C)/C(=C/c2[nH]c(Cc3[nH]c(/C=C4\NC(=O)C(C)=C4C=C)c(C)c3CCC(=O)O)c(CCC(=O)O)c2C)NC1=O [BR, Bilirubin]",oral bioavailability,[1],relatively poor oral bioavailability
same,Ki,HIV-1 protease,0.8 µM
same,IC50,"[2]; read-out: IC50, inhibition of HCV NS3/4A protease; recombinant protease, 591 nm/622 nm FRET peptide, regression analysis",> 300 µM
same,effect of BVR knockdown on antiviral activity (HCV RNA),[3],no significant effect
same,solubility in water,[4],not soluble in water
"CCC1=C(C)/C(=C/c2[nH]c(Cc3[nH]c(/C=C4\NC(=O)C(C)=C4CC)c(C)c3CCC(=O)O)c(CCC(=O)O)c2C)NC1=O [Mesobilirubin, mesobilirubin]",IC50,[2]; [8],> 300 µM
"C=CC1=C(C)/C(=C/c2[nH]c(Cc3[nH]c(/C=C4\NC(=O)C(C)=C4C=C)c(C)c3CCC(=O)O)c(CCC(=O)O)c2C)NC1=O [Bilirubin IXα, bilirubin-IX-α]",concentration showing significant antiviral activity / required to suppress HCV replication,[5],200 µM
same,concentration showing significant antiviral activity / required to suppress HCV replication,[6],200 µM
same,IC50,[2]; [8],> 300 µM
"C=CC1=C(C)/C(=C/C2=NC(=C\c3[nH]c(/C=C4/NC(=O)C(C)=C4C=C)c(C)c3CCC(=O)OC)/C(CCC(=O)OC)=C2C)NC1=O [Biliverdin dimethylester, biliverdin dimethyl ester]",IC50,[2]; [8],> 300 µM
hemin [Heme],Relative [HCV] [ΔCT],[5]; Heme 5 uM,0.22
same,Relative [HCV] [ΔCT],[5]; Heme 10 uM,0.08
same,Relative [HCV] [ΔCT],[5]; Heme 20 uM,0.04
same,lowest level with apparent antiviral effect,"[5]; hemin, replicons",5
same,Relative [HCV] [ΔCT],"[6]; Heme 5 uM, mean of four",0.27
same,Relative [HCV] [ΔCT],[6]; Heme 10 uM,0.09
same,Relative [HCV] [ΔCT],[6]; Heme 20 uM,0.03
same,lowest level with apparent antiviral effect,"[6]; hemin, replicons",5
"[Cl][Fe][Cl] [FeCl2, reference compound]",HCV RNA,"[5]; FeCl2 100 mM as printed, replicon line not specified, not shown",diminishing HCV RNA
same,NS5A protein level (WB),[7]; both replicon lines,decreased
same,core protein level (WB),[7]; full-length replicons,decreased
Bilirubin mixed isomers [Bilirubin (mixed isomers)],concentration showing significant antiviral activity / required to suppress HCV replication,[5],200 µM
same,concentration showing significant antiviral activity / required to suppress HCV replication,[6],200 µM
same,IC50,[2]; [8],> 300 µM
